Activity calls are given as the source filed them.
Key:
[1] = target: T1, Microphthalmia-associated transcription factor (Homo sapiens, UniProt O75030); test: reducers of TRPM1 reporter luminescence, concentration series – cell-based, SK-MEL-5, cherry-picked, set 3, MITF inhibitor project, dose response (AID 493073); format: functional;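 note: SK-MEL-5 melanoma cells with luciferase driven by the MITF target TRPM1 promoter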
T1 sequence (O75030 whole entry): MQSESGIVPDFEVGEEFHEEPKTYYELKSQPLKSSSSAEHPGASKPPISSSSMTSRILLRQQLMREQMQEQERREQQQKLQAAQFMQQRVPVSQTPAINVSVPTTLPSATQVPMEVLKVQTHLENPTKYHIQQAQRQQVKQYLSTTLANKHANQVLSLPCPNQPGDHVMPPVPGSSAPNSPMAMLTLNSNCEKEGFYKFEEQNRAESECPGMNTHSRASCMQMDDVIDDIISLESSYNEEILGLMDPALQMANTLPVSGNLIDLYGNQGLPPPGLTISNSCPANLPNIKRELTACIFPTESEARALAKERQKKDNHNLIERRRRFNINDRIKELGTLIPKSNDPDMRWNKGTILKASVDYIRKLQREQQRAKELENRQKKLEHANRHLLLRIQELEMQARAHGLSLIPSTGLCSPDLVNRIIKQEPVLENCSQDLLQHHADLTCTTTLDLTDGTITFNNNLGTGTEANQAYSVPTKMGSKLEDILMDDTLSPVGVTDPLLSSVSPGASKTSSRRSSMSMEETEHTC

Leucine aminopeptidase = target: T2, Leucine aminopeptidase (Plasmodium falciparum 3D7, UniProt Q8IL11); test: P. falciparum M17LAP inhibitors, primary screen, biochemical, fluorogenic H-Leu-NHMec substrate, 1536-well (AID 1619); format: functional
T2 sequence (Q8IL11 whole entry): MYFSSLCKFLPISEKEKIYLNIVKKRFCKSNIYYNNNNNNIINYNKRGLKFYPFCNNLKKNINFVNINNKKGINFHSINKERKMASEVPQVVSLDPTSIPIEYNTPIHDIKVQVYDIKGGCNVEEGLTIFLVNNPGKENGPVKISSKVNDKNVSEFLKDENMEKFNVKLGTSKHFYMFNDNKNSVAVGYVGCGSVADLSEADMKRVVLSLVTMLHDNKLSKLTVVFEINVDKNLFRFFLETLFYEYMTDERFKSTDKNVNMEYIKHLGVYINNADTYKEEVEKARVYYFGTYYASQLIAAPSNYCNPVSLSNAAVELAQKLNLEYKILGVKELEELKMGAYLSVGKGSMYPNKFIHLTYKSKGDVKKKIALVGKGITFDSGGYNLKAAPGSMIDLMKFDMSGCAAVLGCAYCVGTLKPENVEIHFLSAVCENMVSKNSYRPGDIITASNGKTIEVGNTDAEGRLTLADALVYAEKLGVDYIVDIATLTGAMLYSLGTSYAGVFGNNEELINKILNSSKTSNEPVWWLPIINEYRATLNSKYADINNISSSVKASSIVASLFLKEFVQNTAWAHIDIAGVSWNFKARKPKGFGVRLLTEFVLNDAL

[2] = reduced cellular PGC1a acetyl-lysine signal – cell-based, cherry-picked samples, dose response (AID 720514); format: functional;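 note: potency may reflect raised or lowered acetylation signal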
[3] = target: T3, Small ubiquitin-related modifier 1 (Homo sapiens, UniProt P63165); test: SUMO1 protein-protein binding blockers, potency – biochemical, FRET, dose response (AID 624383); format: functional; details: read-out: IC50_Mean
[4] = target: T3, Small ubiquitin-related modifier 1; test: SUMO1 protein interaction blockers, potency – biochemical, fluorescence polarization, uHTS hits, dose response (AID 624382); format: functional; details: read-out: IC50_Mean
[5] = target: T4, RNA-binding protein pos-1 (Caenorhabditis elegans, UniProt G5EF15); test: disruptors of C. elegans POS-1 RNA interaction – biochemical, fluorescence polarization, dose response (AID 1964);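 note: purified POS-1 fused to maltose binding protein made in E. coli; potency of compounds blocking POS-1 binding to fluorescent RNA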
T4 sequence (G5EF15 whole entry): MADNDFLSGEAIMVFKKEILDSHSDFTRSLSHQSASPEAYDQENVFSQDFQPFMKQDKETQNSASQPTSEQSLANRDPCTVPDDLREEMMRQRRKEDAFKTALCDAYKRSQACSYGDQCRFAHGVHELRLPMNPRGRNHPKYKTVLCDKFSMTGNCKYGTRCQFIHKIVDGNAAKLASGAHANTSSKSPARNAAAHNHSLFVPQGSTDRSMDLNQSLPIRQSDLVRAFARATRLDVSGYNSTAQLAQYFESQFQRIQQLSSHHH

Large T antigen = Large T antigen (Simian virus 40, UniProt P03070); format: functional, Betapolyomavirus macacae;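 note: Confirmatory-stage PubChem screen for compounds that inhibit SV40 T antigen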
Protein RecA = target: T5, Protein RecA (Mycobacterium tuberculosis, UniProt P9WHJ3); test: Fluorescence Cell-Free Homogeneous Dose Retest to Identify Inhibitors of RecA-Intein Splicing Activity. [Related pubchem assays (depositor defined):AID2097, AID2223, AID489010, AID492950]; format: functional
T5 sequence (P9WHJ3 whole entry): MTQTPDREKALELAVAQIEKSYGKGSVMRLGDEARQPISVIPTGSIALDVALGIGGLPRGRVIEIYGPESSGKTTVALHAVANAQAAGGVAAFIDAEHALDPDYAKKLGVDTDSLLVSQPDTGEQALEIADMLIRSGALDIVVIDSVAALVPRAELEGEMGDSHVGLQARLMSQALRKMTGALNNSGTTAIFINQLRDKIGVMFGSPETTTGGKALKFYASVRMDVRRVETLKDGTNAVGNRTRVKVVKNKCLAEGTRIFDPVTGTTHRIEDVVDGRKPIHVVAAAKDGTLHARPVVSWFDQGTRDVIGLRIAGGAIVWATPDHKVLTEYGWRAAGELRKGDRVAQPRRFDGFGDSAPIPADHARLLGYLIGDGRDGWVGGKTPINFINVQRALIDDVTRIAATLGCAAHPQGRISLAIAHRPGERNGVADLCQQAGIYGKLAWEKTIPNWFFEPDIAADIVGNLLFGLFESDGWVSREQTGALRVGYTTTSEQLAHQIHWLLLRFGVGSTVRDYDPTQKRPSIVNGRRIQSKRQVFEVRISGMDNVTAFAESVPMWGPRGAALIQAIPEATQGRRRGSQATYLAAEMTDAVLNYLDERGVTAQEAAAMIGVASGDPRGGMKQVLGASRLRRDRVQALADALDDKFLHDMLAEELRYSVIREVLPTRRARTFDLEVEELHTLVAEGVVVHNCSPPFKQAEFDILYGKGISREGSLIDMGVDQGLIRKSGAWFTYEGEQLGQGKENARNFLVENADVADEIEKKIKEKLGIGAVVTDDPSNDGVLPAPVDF

[6] = target: T6, Zinc finger protein mex-5 (Caenorhabditis elegans, UniProt Q9XUB2); test: potency of MEX-5 RNA-binding blockers – biochemical, C. elegans, fluorescence polarization, dose response (AID 1960)
T6 sequence (Q9XUB2 whole entry): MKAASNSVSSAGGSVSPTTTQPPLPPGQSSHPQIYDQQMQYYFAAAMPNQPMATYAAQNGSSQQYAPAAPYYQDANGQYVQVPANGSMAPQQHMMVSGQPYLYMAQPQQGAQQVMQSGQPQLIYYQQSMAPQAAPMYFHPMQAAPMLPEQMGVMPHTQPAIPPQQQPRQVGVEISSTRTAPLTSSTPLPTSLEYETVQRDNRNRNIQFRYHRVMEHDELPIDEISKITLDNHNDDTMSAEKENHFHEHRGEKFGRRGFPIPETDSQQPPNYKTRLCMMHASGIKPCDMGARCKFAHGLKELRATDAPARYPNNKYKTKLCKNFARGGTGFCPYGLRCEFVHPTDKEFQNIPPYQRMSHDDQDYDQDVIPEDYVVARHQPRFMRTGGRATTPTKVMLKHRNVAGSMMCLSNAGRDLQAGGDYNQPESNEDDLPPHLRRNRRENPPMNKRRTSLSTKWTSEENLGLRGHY

[7] = target: T7, Replicative DNA helicase DnaB (Mycobacterium tuberculosis, UniProt P9WMR3); test: DnaB intein splicing inhibitors, dose response, biochemical, cell-free fluorescence (AID 449749); format: functional
T7 sequence (P9WMR3 whole entry): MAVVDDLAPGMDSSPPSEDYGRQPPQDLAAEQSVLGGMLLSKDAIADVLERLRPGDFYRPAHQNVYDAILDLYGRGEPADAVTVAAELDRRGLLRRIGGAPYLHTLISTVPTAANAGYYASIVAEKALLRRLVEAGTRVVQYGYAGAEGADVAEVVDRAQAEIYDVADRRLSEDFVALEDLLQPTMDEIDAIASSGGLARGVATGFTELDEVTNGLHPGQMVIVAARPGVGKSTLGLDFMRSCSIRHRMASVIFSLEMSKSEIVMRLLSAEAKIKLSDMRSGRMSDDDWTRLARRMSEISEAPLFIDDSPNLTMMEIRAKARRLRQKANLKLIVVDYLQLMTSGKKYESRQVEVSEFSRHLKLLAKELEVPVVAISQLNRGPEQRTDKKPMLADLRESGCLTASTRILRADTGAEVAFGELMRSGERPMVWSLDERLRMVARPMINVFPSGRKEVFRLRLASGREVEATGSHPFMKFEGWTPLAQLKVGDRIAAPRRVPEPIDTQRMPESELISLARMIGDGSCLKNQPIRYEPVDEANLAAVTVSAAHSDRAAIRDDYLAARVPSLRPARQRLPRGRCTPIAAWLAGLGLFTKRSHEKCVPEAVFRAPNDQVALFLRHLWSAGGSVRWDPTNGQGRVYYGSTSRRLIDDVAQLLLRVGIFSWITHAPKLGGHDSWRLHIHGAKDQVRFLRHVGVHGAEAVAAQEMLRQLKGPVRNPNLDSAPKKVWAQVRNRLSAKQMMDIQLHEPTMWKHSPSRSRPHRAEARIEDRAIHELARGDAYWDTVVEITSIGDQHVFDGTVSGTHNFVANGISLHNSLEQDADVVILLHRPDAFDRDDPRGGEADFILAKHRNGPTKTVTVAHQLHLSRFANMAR

[8] = blockade of melanocortin 4 receptor signaling – cell-based, plate reader, cherry pick, counter-screen for LGR2 antagonist project, dose response (AID 743444); format: functional;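 note: transfected HEK 293 cells stimulated with alpha-MSH peptide; potency of inhibitors of the alpha-MSH evoked signal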
[9] = blockers of bursicon-stimulated LGR2 cAMP reporter – cell-based, HEK293, CRE-luciferase reporter, cherry pick, set 2, dose response (AID 743343); format: functional;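 note: transfected cells were stimulated with diluted bursicon conditioned medium after compound addition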
Cytochrome P450 2C9 = Cytochrome P450 2C9 (Homo sapiens, UniProt P11712)
Cytochrome P450 2D6 = Cytochrome P450 2D6 (Homo sapiens, UniProt P10635);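 note: CYP2D6 member of a cytochrome P450 panel assay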
Cytochrome P450 3A4 = Cytochrome P450 3A4 (Homo sapiens, UniProt P08684);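 note: CYP3A4 tested as one member of a cytochrome P450 panel screen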
Cytochrome P450 2C19 = Cytochrome P450 2C19 (Homo sapiens, UniProt P33261); test: Cytochrome panel assay with activity outcomes. Panel member name: p450-cyp2c19 Compounds with AC50 equal or less than 10 uM are considered active; format: functional; details: read-out: AC50
Cytochrome P450 2C19, sequence (P33261 whole entry): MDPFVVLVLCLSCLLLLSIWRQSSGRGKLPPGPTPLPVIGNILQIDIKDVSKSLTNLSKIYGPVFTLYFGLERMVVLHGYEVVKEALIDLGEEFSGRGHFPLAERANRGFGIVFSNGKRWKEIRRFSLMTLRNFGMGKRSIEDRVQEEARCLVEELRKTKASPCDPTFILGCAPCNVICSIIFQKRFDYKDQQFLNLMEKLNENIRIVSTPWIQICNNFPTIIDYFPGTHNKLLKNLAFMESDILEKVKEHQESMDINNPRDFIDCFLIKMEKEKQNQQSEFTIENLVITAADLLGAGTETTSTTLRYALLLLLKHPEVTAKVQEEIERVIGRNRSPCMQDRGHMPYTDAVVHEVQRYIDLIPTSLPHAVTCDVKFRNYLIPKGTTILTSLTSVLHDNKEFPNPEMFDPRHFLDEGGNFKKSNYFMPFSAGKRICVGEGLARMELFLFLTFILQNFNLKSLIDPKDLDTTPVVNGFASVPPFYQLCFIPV

T3 sequence (P63165 whole entry): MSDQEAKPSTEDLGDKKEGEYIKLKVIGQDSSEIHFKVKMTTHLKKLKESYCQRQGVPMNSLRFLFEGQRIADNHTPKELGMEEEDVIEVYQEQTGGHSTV
Cytochrome P450 2C9, sequence (P11712 whole entry): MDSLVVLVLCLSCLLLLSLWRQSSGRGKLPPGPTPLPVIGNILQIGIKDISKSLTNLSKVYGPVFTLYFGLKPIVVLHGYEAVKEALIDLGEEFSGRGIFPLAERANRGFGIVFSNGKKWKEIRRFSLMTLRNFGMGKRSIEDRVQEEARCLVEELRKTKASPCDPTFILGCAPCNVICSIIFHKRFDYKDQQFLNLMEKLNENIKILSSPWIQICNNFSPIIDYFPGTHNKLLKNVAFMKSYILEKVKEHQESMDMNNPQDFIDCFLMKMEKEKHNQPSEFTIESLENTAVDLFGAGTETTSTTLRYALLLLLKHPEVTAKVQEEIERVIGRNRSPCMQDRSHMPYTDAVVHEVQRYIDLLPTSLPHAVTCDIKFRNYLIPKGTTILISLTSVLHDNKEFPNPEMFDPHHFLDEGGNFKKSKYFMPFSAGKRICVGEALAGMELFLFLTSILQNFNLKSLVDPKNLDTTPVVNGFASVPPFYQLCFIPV
Cytochrome P450 2D6, sequence (P10635 whole entry): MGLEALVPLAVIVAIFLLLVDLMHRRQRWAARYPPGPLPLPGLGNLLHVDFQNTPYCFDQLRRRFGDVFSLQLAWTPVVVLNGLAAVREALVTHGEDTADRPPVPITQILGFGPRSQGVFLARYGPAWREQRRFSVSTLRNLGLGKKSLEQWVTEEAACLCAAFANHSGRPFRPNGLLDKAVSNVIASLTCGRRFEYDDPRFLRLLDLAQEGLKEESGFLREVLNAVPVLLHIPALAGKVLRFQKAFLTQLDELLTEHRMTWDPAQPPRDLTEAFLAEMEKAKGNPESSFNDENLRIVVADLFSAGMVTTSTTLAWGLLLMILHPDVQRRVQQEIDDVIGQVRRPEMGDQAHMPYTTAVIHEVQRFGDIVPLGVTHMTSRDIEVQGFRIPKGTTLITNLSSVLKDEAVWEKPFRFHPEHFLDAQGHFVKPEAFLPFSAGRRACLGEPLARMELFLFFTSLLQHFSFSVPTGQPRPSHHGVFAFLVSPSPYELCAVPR
Cytochrome P450 3A4, sequence (P08684 whole entry): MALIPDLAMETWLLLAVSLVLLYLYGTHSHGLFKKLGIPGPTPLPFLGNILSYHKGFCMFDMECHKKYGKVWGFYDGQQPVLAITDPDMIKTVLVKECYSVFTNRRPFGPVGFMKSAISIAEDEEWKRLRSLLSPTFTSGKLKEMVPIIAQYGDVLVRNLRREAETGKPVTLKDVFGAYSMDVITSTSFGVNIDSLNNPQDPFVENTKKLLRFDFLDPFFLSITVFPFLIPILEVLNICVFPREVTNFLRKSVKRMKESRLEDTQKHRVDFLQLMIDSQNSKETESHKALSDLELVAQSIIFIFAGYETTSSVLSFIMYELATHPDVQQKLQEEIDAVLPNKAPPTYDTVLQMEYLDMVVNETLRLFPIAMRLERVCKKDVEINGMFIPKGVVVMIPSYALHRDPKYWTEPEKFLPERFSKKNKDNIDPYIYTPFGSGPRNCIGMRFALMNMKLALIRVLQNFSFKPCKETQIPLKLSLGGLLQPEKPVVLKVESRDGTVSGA
Large T antigen, sequence (P03070 whole entry): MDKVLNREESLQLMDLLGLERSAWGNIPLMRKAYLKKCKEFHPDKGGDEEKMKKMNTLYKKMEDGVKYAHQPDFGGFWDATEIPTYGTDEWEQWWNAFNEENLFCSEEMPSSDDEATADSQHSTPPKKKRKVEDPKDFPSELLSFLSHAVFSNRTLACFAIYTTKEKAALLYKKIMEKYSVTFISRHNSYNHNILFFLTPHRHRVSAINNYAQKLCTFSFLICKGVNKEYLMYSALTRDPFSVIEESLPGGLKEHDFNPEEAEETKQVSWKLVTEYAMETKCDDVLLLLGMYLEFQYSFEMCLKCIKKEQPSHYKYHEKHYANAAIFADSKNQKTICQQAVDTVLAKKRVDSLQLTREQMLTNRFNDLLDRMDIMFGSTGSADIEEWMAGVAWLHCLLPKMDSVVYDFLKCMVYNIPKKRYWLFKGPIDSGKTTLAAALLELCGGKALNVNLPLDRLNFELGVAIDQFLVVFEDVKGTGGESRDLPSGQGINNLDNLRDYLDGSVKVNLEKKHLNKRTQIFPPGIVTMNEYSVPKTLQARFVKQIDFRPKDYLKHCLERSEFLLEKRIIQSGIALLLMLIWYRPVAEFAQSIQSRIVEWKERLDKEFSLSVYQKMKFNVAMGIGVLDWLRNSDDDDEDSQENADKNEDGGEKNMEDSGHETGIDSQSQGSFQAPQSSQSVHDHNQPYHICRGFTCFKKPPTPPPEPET

In the case of COc1cc(SC)ccc1C(=O)Nc1ccc(Br)cn1, the AC50 [1] is reported as 7.36 µM (active).

For O=C(NCc1ccccc1)C(=O)Nc1cccc(C(=O)O)c1, the AC50 [1] was 4.85 µM (active).

With O=C(O)C1CCCCC1C(=O)Nc1cccc(Cl)c1Cl (stereo not given) the IC50 (Leucine aminopeptidase) was 13.5 µM (active).

In the case of COc1cccc2c(=O)n(CC(=O)N3CCCCCC3)ccc12, the IC50 (Leucine aminopeptidase) is reported as 17.6 µM (active).

With O=C(Nc1c(C(=O)O)oc2ccc(Br)cc12)c1ccccc1 the IC50 (Leucine aminopeptidase) was 5.42 µM (active).

With O=C(O)C1CCCCC1C(=O)Nc1ccc2c(c1)OCCO2 (stereo not given) the IC50 (Leucine aminopeptidase) was 32.9 µM (active).

With CCn1c(C)c(C)c2cc(C(=O)NCCN3CCOCC3)ccc21 the AC50 [2] was 25.5 µM (active).

In the case of CC(CC(=O)OCC(=O)Nc1ccc2[nH]c(O)nc2c1)c1ccccc1 (stereo not given), the IC50 [3] is reported as 21 µM (inactive) and the IC50 [4] is reported as > 66.6 µM (inactive).

With COc1cc(C2C(C#N)=C(N)Oc3[nH]nc(-c4cccnc4)c32)cc(Br)c1O (stereo not given) the EC50 [5] was > 300 µM (not active), the IC50 (Large T antigen) was 57 µM (active) and the EC50 (Protein RecA) was 2.06 µM (active). For the same molecule, the EC50 [6] was > 300 µM (not active) and the AC50 [7] was 5.65 µM (active).

In the case of CCC(CO)Oc1cc(NC(=O)c2ccccc2F)c2ncn(C(C)C)c2c1 (stereo not given), the IC50 [3] is reported as 12.2 µM (active) and the IC50 [4] is reported as > 66.6 µM (inactive).

In the case of CC(=O)Nc1ccc(S(=O)(=O)N2CCn3cccc3C2C)cc1 (stereo not given), the AC50 [1] is reported as 28.6 µM (active).

In the case of CCC(=O)Nc1cc2nn(-c3ccc(C)cc3)nc2cc1C, the AC50 [1] is reported as 4.15 µM (active).

For Cc1cc(C(=O)Nc2ccc(N3CCCCC3)cc2)no1, the AC50 [8] was 13.1 µM (active) and the AC50 [9] was 13.3 µM (active).

In the case of COc1ccccc1NC(=O)CC1COc2ccccc2O1 (stereo not given), the AC50 (Cytochrome P450 2C9) is reported as 5.62 µM (inconclusive), the AC50 (Cytochrome P450 2D6) is reported as 12.6 µM (inconclusive) and the AC50 (Cytochrome P450 3A4) is reported as 14.1 µM (inconclusive). For the same molecule, the IC50 (Leucine aminopeptidase) was 5.29 µM (active).

For COc1cc(CN2C[C@@H]3N[C@H](C2)[C@H]3c2ccc(-c3cccc(OC)c3)cc2)cc(OC)c1, the AC50 [2] was 24.5 µM (active).

In the case of C[C@@H]1CN([C@@H](C)CO)S(=O)(=O)c2ccc(C#CC3CCCCC3)cc2O[C@H]1CN(C)Cc1cccnc1, the AC50 [2] is reported as 15.1 µM (active).

With O=C(N/N=C/c1ccncc1)c1cc2c(ccc3ccccc32)o1 the AC50 (Cytochrome P450 2C9) was 0.794 µM (inconclusive), the IC50 [3] was 100 µM (inactive) and the AC50 (Cytochrome P450 2C19) was 8.91 µM (inconclusive). For the same molecule, the IC50 [4] was > 66.6 µM (inactive).

Reference: ChEMBL document CHEMBL1201862, “PubChem BioAssay data set” (2004)
